Laboratory results taken from ChEMBL document CHEMBL1201862, “PubChem BioAssay data set” (2004).
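Five compound concentrations were applied to cells in 96-well plates for 48 hours; endpoints were derived by simple linear interpolation of the resulting dose-response curve. GI50 marks 50% less growth.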 Calls of active or inactive are those of the source. Cut-off read from the data, not from the text of the source: active = GI50 up to about 1.1 µM and inactive = higher.

Legend:
Assay in all cases: DTP human tumour cell line panel, 48 h
IGROV-1 = system: IGROV-1
HOP-92 = system: HOP-92
RPMI-8226 = system: RPMI-8226
KM12 = system: KM12
SF-268 = system: SF-268
LOX IMVI = system: LOX IMVI
SN12C = system: SN12C
NCI/ADR-RES = system: NCI/ADR-RES
HCT-15 = system: HCT-15
786-0 = system: 786-0
SK-OV-3 = system: SK-OV-3
SK-MEL-2 = system: SK-MEL-2
COLO 205 = system: COLO 205
SNB-75 = system: SNB-75
TK-10 = system: TK-10
DU-145 = system: DU-145
PC-3 = system: PC-3
SR = system: SR
U-251 = system: U-251

Row | SMILES | GI50 (IGROV-1) | GI50 (HOP-92) | GI50 (RPMI-8226) | GI50 (KM12) | GI50 (SF-268) | GI50 (LOX IMVI) | GI50 (SN12C) | GI50 (NCI/ADR-RES) | GI50 (HCT-15) [µM] | GI50 (786-0) | GI50 (SK-OV-3) | GI50 (SK-MEL-2) | GI50 (COLO 205) | GI50 (SNB-75) | GI50 (TK-10) | GI50 (DU-145) | GI50 (PC-3) | GI50 (SR) | GI50 (U-251)
1 | Cc1ccc(/C=C2\NC(=S)N(CN3CCOCC3)C2=O)cc1 | > 100 µM (inactive) | > 100 µM (inactive) | > 100 µM (inactive) | > 100 µM (inactive) | > 100 µM (inactive) | > 100 µM (inactive) | > 100 µM (inactive) | > 100 µM (inactive) | > 100 | > 100 µM (inactive) | > 100 µM (inactive) | > 100 µM (inactive) | > 100 µM (inactive) | > 100 µM (inactive) | > 100 µM (inactive) | > 100 µM (inactive) | > 100 µM (inactive) | > 100 µM (inactive) | > 100 µM (inactive)
2 | NC(Cc1ccnnc1)C(=O)O (configuration not stated) | > 100 µM (inactive) | > 100 µM (inactive) | > 100 µM (inactive) | > 100 µM (inactive) | > 100 µM (inactive) | > 100 µM (inactive) | > 100 µM (inactive) | > 100 µM (inactive) | > 100 | > 100 µM (inactive) | > 100 µM (inactive) | > 100 µM (inactive) | > 100 µM (inactive) | > 100 µM (inactive) | > 100 µM (inactive) | > 100 µM (inactive) | > 100 µM (inactive) | > 100 µM (inactive) | > 100 µM (inactive)
3 | Nc1nc(Cl)c(C=O)c(NCC2(CO)CC(CCc3ccccc3)C2)n1 (configuration not stated) | 1.74 µM (inactive) | 1.77 µM (inactive) | 12.4 µM (inactive) | 13.7 µM (inactive) | 15.4 µM (inactive) | 2.95 µM (inactive) | 6.15 µM (inactive) | 16.2 µM (inactive) | 4.18 | 21 µM (inactive) | 11.3 µM (inactive) | 3.57 µM (inactive) | 11.6 µM (inactive) | 18.7 µM (inactive) | 15.2 µM (inactive) | 14.8 µM (inactive) | 6.43 µM (inactive) | 1.87 µM (inactive) | 13.6 µM (inactive)
4 | COc1cc(C)cc(C(=O)/C=C/c2ccccc2)c1O | 12.6 µM (inactive) | 14.9 µM (inactive) | 21.2 µM (inactive) | 18.5 µM (inactive) | 25.6 µM (inactive) | 17.4 µM (inactive) | 16.9 µM (inactive) | 21.4 µM (inactive) | 18.1 | 17.8 µM (inactive) | 29.2 µM (inactive) | 18.5 µM (inactive) | 20 µM (inactive) | 24.5 µM (inactive) | 18.6 µM (inactive) | 14.1 µM (inactive) | 19.3 µM (inactive) | 30.9 µM (inactive) | 17.2 µM (inactive)
5 | CC1=NC(=O)C(C)(c2ccccc2)N1CCc1ccccc1 (configuration not stated) | 57.8 µM (inactive) | 16.9 µM (inactive) | 63.1 µM (inactive) | 44.3 µM (inactive) | > 100 µM (inactive) | 58.7 µM (inactive) | > 100 µM (inactive) | 67.9 µM (inactive) | 35.2 | > 100 µM (inactive) | > 100 µM (inactive) | > 100 µM (inactive) | 27.4 µM (inactive) | 16.5 µM (inactive) | > 100 µM (inactive) | > 100 µM (inactive) | 44.7 µM (inactive) | 32 µM (inactive) | > 100 µM (inactive)
6 | COc1ccc(C(=O)N2CCN(c3ccc4c(c3)OCC(=O)N4)CC2)cc1OC | > 100 µM (inactive) | > 100 µM (inactive) | > 100 µM (inactive) | > 100 µM (inactive) | > 100 µM (inactive) | > 100 µM (inactive) | > 100 µM (inactive) | > 100 µM (inactive) | > 100 | > 100 µM (inactive) | > 100 µM (inactive) | > 100 µM (inactive) | > 100 µM (inactive) | > 100 µM (inactive) | > 100 µM (inactive) | > 100 µM (inactive) | > 100 µM (inactive) | > 100 µM (inactive) | > 100 µM (inactive)
7 | COCC#C[C@@]1(O)CCCCC1CC(OC)OC (some centres not stated) | 48.1 µM (inactive) | 94.6 µM (inactive) | 32.4 µM (inactive) | > 100 µM (inactive) | > 100 µM (inactive) | 48 µM (inactive) | > 100 µM (inactive) | > 100 µM (inactive) | 76.2 | > 100 µM (inactive) | > 100 µM (inactive) | > 100 µM (inactive) | > 100 µM (inactive) | > 100 µM (inactive) | > 100 µM (inactive) | > 100 µM (inactive) | > 100 µM (inactive) | 40.3 µM (inactive) | > 100 µM (inactive)
8 | CCCCCCCCCCCC[C@@H](O)[C@H]1CC[C@H]([C@H](O)CC[C@H](O)[C@@H]2CC[C@@H](CCCCCCCC3=C[C@H](C)OC3=O)O2)O1 | > 50 µM (inactive) | > 50 µM (inactive) | > 37.2 µM (inactive) | > 50 µM (inactive) | > 50 µM (inactive) | > 27.2 µM (inactive) | 3.99 µM (inactive) | > 50 µM (inactive) | > 50 | > 50 µM (inactive) | > 50 µM (inactive) | > 50 µM (inactive) | > 50 µM (inactive) | > 50 µM (inactive) | > 50 µM (inactive) | 7.55 µM (inactive) | > 50 µM (inactive) | 1.27 µM (inactive) | > 50 µM (inactive)
